Results on two molecules are retold here after patent EP4389827A1, “AMINOGLYCOSIDE-LINKED PHOTOSENSITIZERS” (Centre National de la Recherche Scientifique, priority 2022, dated 2024).

Like-named read-outs stand apart in the source and are kept apart here. Where only a bound is given, the exact number is not on record here.

Assay [1] has as its system A. baumannii DSM30011. The assay can be described thus: Minimal inhibitory concentration (EUCAST), with or without 660 nm irradiation. It is filed as cell-based, Acinetobacter baumannii. The settings on record: Acinetobacter baumannii, DSM30011, light or radiation study, 18 h. The procedure:
(§1) Acinetobacter baumannii DSM30011, Bacillus subtilis 168, Pseudomonas aeruginosa PA14, P. aeruginosa PAO1, Staphylococcus aureus Mu50, S. aureus Newman and S. aureus USA300 were all grown in MHB-CA at 37°C with an agitation of 180 rpm. Candida albicans SC5314 was grown in yeast extract peptone dextrose broth at 35°C with an agitation of 180 rpm.
(§2) Minimal inhibitory concentrations (MICs) for selected bacteria were investigated according to the EUCAST guidelines. Serial dilutions of the compounds, photosensitizers and aminoglycosides were made in MHB-CA in 384-well plates. Stationary-phase cells were diluted in MHB-CA to have a final concentration of 5.5 × 10^5 CFU/mL. Samples were incubated in the dark for 20 minutes at 37°C and either irradiated at 660 nm for 30 minutes with a LED device or kept in the dark. Irradiated samples received a total of 168 mJ/mm^2. Plates were then incubated at 37°C for 18 hours and MICs were evaluated visually. Triplicates were done and the synergy, or fractional inhibitory concentration (FIC), was calculated according to Doern et al., 2014: FIC = (MIC of AB)/(MIC of A) + (MIC of AB)/(MIC of B) [formula]

Assay [2] has as its system S. aureus Mu50. Description: Antibacterial photodynamic therapy on biofilm cells. Format: cell-based, Staphylococcus aureus. To be noted: - irradiation. An excerpt: (§3) Compounds Neo-Ce6 and Tobra-Ce6 caused strong drop in survival for biofilms of A. baumannii […], P. aeruginosa species and S. aureus Mu50. […] Tobra-Ce6 had its strongest effect on A. baumannii DSM30011 with more than 4 log10 CFU/mL drop in survival and a drop of 1.7 log10 CFU/mL in P. aeruginosa PA14. Table 2: aPDT results for biofilm cells expressed in drop in the log10 CFU/mL compared to controls.

In assay [3] the test system is S. aureus Newman. The description is as above. It is filed as cell-based, Staphylococcus aureus. To be noted: - irradiation.
From the text: as §3

The test system of assay [4] is S. aureus USA300. Described as above. Format: cell-based, Staphylococcus aureus. The settings on record: - irradiation.
From the text: as §3

Assay [5] concerns P. aeruginosa PA14. The assay is described as above. Format: cell-based, Pseudomonas aeruginosa. The settings on record: - irradiation.
From the text: as §3

For assay [6], the system named is P. aeruginosa PAO1. Described as above. The settings on record: - irradiation. Format: cell-based, Pseudomonas aeruginosa.
From the text: as §3

The test system of assay [7] is A. baumannii DSM30011. The description is as above. It is filed as cell-based, Acinetobacter baumannii. To be noted: - irradiation.
From the text: as §3

Assay [8] concerns S. aureus Mu50. The assay can be described thus: Minimal inhibitory concentration (EUCAST), with or without 660 nm irradiation. Format: cell-based. To be noted: Staphylococcus aureus, MU50, light or radiation study, 18 h. The procedure: as §1, §2
In assay [9] the test system is S. aureus USA300. Described as above. It is filed as cell-based. To be noted: Staphylococcus aureus, USA300, light or radiation study, 18 h, aminoglycoside alone, irradiation state not given. The procedure: as §1, §2
For assay [10], the system named is P. aeruginosa PA14. The assay is described as above. Format: cell-based, Pseudomonas aeruginosa. The settings on record: Pseudomonas aeruginosa, PA14, light or radiation study, 18 h. The protocol: as §1, §2
In assay [11] the test system is P. aeruginosa PAO1. Described as above. To be noted: Pseudomonas aeruginosa, PAO1, light or radiation study, 18 h. It is filed as cell-based, Pseudomonas aeruginosa. The procedure: as §1, §2
The subject of assay [12] is P. aeruginosa PAO1. Description: Antibacterial photodynamic therapy on planktonic cells (CFU count). It is filed as cell-based. To be noted: Pseudomonas aeruginosa, PAO1, light or radiation study, aminoglycoside alone, Figure 5d (without irradiation), read-out: drop of survival. The protocol: as §1
(§4) Cells were brought to stationary phase by incubating them in MHB-CA for at least 18 hours at 37°C with 180 rpm and diluted to an optical density of 1.0 just before the experiment. Cells were incubated for 20 minutes with either the compounds, photosensitizers alone, or aminoglycosides alone. Unless stated otherwise, a concentration of 10 µM was used for all experiments and samples were irradiated for 30 minutes at 660 nm with the Solis-660C lamp from ThorLabs, receiving a total of 5 J/mm^2. After illumination, cells were washed with phosphate-buffered saline (PBS) 1X, serially diluted and plated on Mueller-Hinton agar. The next day, colony forming units (CFUs) were counted.

Assay [13] deals with S. aureus Newman. The assay can be described thus: Minimal inhibitory concentration (EUCAST), with or without 660 nm irradiation. The settings on record: Staphylococcus aureus, NEWMAN, light or radiation study, 18 h. It is filed as cell-based, Staphylococcus aureus. The procedure:
as §1, §2

Assay [14] relates to S. aureus USA300 persister cells. The assay can be described thus: Antibacterial photodynamic therapy on persister cells. It is filed as cell-based, Staphylococcus aureus. The settings on record: persister cells (6 hours, 2 mM neomycin); aPDT at 10 µM, 5 J/mm^2 (Figure 6a). The procedure: Persister plateau and AG concentration varied from one species to another. In S. aureus USA300, a stable plateau was obtained following 6 hours of incubation with 2 mM of neomycin. […] This control is crucial to make sure that a persister state has been achieved. […] As there are no significant differences between irradiated and non-irradiated samples, however, the production of singlet oxygen may not be the factor leading to cell death. In S. aureus Newman, cells were treated for 24 hours with 1 mM of neomycin. […] Although this synergy does exist, like in S. aureus USA300, there is no significant difference in survival for irradiated and non-irradiated samples, except for Ce6.

The test system of assay [15] is S. aureus Mu50. The assay can be described thus: Antibacterial photodynamic therapy on planktonic cells (CFU count). Format: cell-based, Staphylococcus aureus. To be noted: non-irradiated samples (Figure 3b). The protocol:
as §1, §4

In assay [16] the test system is S. aureus Newman. The assay is described as above. It is filed as cell-based, Staphylococcus aureus. To be noted: non-irradiated samples (Figure 3d). The procedure:
as §1, §4

The test system of a further assay is C. albicans SC5314. Description: Minimal inhibitory concentration, with or without 660 nm irradiation. Format: cell-based. To be noted: Candida albicans, SC5314, light or radiation study, 18 h. The procedure:
as §1, §2

The next assay relates to B. subtilis 168. The assay can be described thus: Minimal inhibitory concentration (EUCAST), with or without 660 nm irradiation. Format: cell-based, Bacillus subtilis. The settings on record: Bacillus subtilis, 168, light or radiation study, 18 h. The procedure:
as §1, §2

A further assay deals with E. coli pET-29. Described as above. It is filed as cell-based. To be noted: Escherichia coli, PET29, light or radiation study, 18 h; aminoglycoside alone, irradiation state not given. The procedure: as §2
In the next assay the test system is E. coli KanR. The description is as above. It is filed as cell-based. The settings on record: Escherichia coli, light or radiation study, 18 h. The procedure: as §2
The next assay concerns K. pneumoniae LM21. Described as above. Format: cell-based. To be noted: Klebsiella pneumoniae, LM21, light or radiation study, 18 h. The protocol:
as §2

[17] abbreviates: aminoglycoside alone, irradiation state not given, read-out: MIC.

As for `NC[C@H]1O[C@H](O[C@H]2[C@H](O)[C@@H](O[C@H]3O[C@H](CO)[C@@H](O)[C@H](N)[C@H]3O)[C@H](N)C[C@@H]2N)[C@H](N)C[C@@H]1O` [Tobramycin, tobramycin], the minimal inhibitory concentration (MIC) (commonly the smallest concentration in the dilution series that meets the test's criterion for growth inhibition) with A. baumannii DSM30011 [1] (setting [17]) was 4 to 8 µM; in the assay with S. aureus Mu50 [8] (setting [17]), over 512 µM; in the assay with S. aureus USA300 [9] it was 4 µM; in the assay with P. aeruginosa PA14 [10] (setting [17]), 1 to 2 µM; in the assay with P. aeruginosa PAO1 [11] (setting [17]) it was 0.5 to 1 µM; in the assay on S. aureus Newman [13] (setting [17]), 4 µM. Further, the “drop in the log10 CFU/mL compared to controls” value with S. aureus Mu50 [2] was -0.02 log10 CFU/mL; in the assay with S. aureus Newman [3], 0.25 log10 CFU/mL; in the assay with S. aureus USA300 [4], 0.26 log10 CFU/mL; with P. aeruginosa PA14 [5], 0.79 log10 CFU/mL; in the assay with P. aeruginosa PAO1 [6], 0.39 log10 CFU/mL; with A. baumannii DSM30011 [7], 0.93 log10 CFU/mL. Further, in the assay with P. aeruginosa PAO1 [12], the log reduction at 10 µM was about 2.3.
As to `NC[C@@H]1O[C@H](O[C@H]2[C@@H](O)[C@H](O[C@@H]3[C@@H](O)[C@H](N)C[C@H](N)[C@H]3O[C@H]3O[C@H](CN)[C@@H](O)[C@H](O)[C@H]3N)O[C@@H]2CO)[C@H](N)[C@@H](O)[C@@H]1O` [Neomycin, neomycin], the MIC in the assay on A. baumannii DSM30011 [1] is 8 µM; with S. aureus Mu50 [8], over 512 µM; with S. aureus USA300 [9], 4 µM; in the assay with P. aeruginosa PA14 [10], 4 µM; in the assay on P. aeruginosa PAO1 [11], 16 µM; in the assay on C. albicans SC5314, over 512 µM. Further, the MIC in the assay on S. aureus Newman [13] was 8 µM; in the assay on B. subtilis 168, 0.4 µM; in the assay with E. coli pET-29 it was 128 to 256 µM; with E. coli KanR it was over 512 µM; with K. pneumoniae LM21, 2 µM. Also, the “drop in the log10 CFU/mL compared to controls” value is listed as 0.18 log10 CFU/mL in the assay with S. aureus Mu50 [2]; -0.07 log10 CFU/mL in the assay on S. aureus Newman [3]; 0.16 log10 CFU/mL with S. aureus USA300 [4]; 0.01 log10 CFU/mL in the assay on P. aeruginosa PA14 [5]; 0.28 log10 CFU/mL in the assay on P. aeruginosa PAO1 [6]; 1.33 log10 CFU/mL in the assay on A. baumannii DSM30011 [7]. In assay [14], the “persister cell survival (in words)” value is “no significant drop in survival”. Further, the “drop in CFUs (in words)” value in the assay on S. aureus Mu50 [15] and in the assay with S. aureus Newman [16] was “does not lead to significantly less survival” throughout.
